Measured values from patent US20090155186A1, “Compositions and methods for treating inflammatory conditions” (SIGNUM BIOSCENCES, INC., priority 2005, published 2009).
Values belong to the molecule of their own block, whether it stands above or below them.

Key:
chronic irritation = test: Chronic irritation in mice by multiple TPA applications; format: in vivo, mouse; details: AFC in acetone, contemplated result
Experimental: The effectiveness of the inventive compositions against established chronic irritation can be assayed using a modification of the technique of Stanley P L et al., Mouse skin inflammation induced by multiple topical application 12-O-tetradeconoyphorbol-13-acetate. Skin Pharmacol. 1991, 4(4):262-71. Both ears of each mouse are treated with TPA in acetone, as above, in a series of 5 applications on the mornings of days 0, 2, 4, 7, and 9. […] Punches of the ears then are taken the afternoon of the tenth day and prepared, as above, for the edema assay and the infiltration of neutrophils. Total granulocyte infiltration then is assayed by measuring MPO activity. Macrophage infiltration is determined immunocytologically using the MOMA-2 antibody. Hydrocortisone, which is known to reduce inflammatory edema granulation infiltration and microphage infiltration, can be used as a positive control.

[1] = test system: neutrophil, macrophage, and platelet responses; details: in vitro, background statement; cited from earlier work
[2] = test system: TPA-induced neutrophil infiltration; test: TPA-induced neutrophil infiltration, neutrophil counting assay (H&E histology); format: in vivo, mouse
Experimental: Neutrophil-infiltration Assay: Swiss Webster male mice (n=6) were treated with 1 μg/20 μl of TPA as described above in order to assess whether or not TPA induced neutrophil infiltration Acetone was used as a control. TPA was administered as described above. The mice were returned to their cages for 24 hrs to allow neutrophil infiltration, then sacrificed by cervical dislocation. The ears were removed immediately for punch biopsy, and punches were fixed for subsequent histological analysis and MPO enzymatic assay.
Neutrophil Counting Assay: Ear punches buffered in 10% formalin in PBS at ambient temperature for a minimum of 24 hrs. were sectioned and stained with Hematoxilin & Eosin (“H&E”). The number of neutrophils, identified by their multilobular nuclei, in 6 randomly 100× magnified fields distributed along the length of the ear were counted manually The results are expressed as the average number per field for each ear.
Two micrograms (2 μg) of TPA in 20 μl of acetone was applied onto both ears of each mouse to induce neutrophil infiltration. […] After 24 hours, the mice were sacrificed.

[3] = molecular target: membrane-associated polyisoprenoid methyl transferase (Homo sapiens, UniProt O60725); details: background statement; cited from earlier work
TPA-induced erythema = TPA-induced erythema in mouse ear (photograph); format: in vivo; details: 1 μg/20 μl TPA; 1 mg/20 μl AFC after 1 hour; photo 23 hours later
Experimental: For this example, both ears of a mouse were treated with a 1 μg/20 μl dose of TPA in acetone. […] The photo was taken 23 hours later using a Nikon D70 digital camera.

human skin = test: SDS patch irritation on human skin with pre-applied AFC; format: in vivo; details: AFC 140 mM aqueous formulation pre-applied
Experimental: An irritant was applied to the middle of the upper back of a human subject using a 0.2 ml 20% SDS solution and a Hill-Top Chamber patch with Webril pad. […] Patches 1a and 2a were removed after 2 hours, while patches 1b and 2b were removed after 2 hours and 30 minutes. High levels of irritation were visible in patch sites 2a and 2b.

TPA-induced MPO activity [4] = test: TPA-induced neutrophil infiltration, MPO assay of mouse ears; format: in vivo
Experimental: MPO enzyme activity of the ears was assayed using the technique detailed by Griffiths and coworkers (1988). To conduct the assay, each ear was homogenized in 1.0 ml of cetyltrimethylammonium bromide buffer for 5 sec using a Pro 200 tissue blender (Pro Scientific, Inc., Oxford, Conn.) at setting 5. These samples then were centrifuged for 5 minutes at 15,000 rpm in a 5415 Eppendorf microcentrifuge. Triplicate 20 microliter aliquots of supernatant were added to 200 microliters of reaction mixture (1.25 ml IM Potassium Phosphate, 4.175 mg o-dianisidine dihydrochloride and 5 μl of 1% peroxide in a final volume of 25 ml). Absorbance at 450 nm then was measured at room temperature at three 60 second intervals using Bio-Kinetics Reader EL 312E (Bio-Tek Instruments). Activity of the homogenate, which was determined by a Bradford assay (BioRad Protein Assay, BioRad Laboratories, Inc. Hercules, Calif.), was expressed as units MPO per mg tissue +/−standard error.
Two micrograms (2 μg) of TPA in 20 μl of acetone was applied onto both ears of each mouse to induce neutrophil infiltration. After 15 minutes, varying concentrations of AFC in acetone were applied to the right ear of each mouse. After 24 hours, the mice were sacrificed. The ears were removed and the efficacy of AFC on neutrophil infiltration was assessed by an MPO assay and histological analysis.
The effectiveness of AFC treatment at various times before and after TPA application was assessed using MPO as a measure of neutrophil infiltration. […]

[5] = test system: delayed-type hypersensitivity; test: DNFB delayed-type hypersensitivity mouse ear model; format: in vivo; details: AFC 0.5 hour before or 15 min after challenge, contemplated result
Description: The mouse ear model, described above, can be modified to assay the effect of anti-inflammatory agents in an immune based inflammation model (See Tramposch, K. M., Skin Inflammation, in In Vivo Models of Inflammation, M. L. Morgan D W, Editor. 1999, Birkhauser Verlag. pp. 179-20 and Chapman, J. P., Z. Ruben, and G. M. Butchko, Histology of and quantitative assays for oxazolone-induced allergic contact dermatitis in mice. Am J Dermatopathol, 1986. 8(2): 130-8). In this model, a sensitizing dose of dinitrofluorobenzene (DNFB) 1-3% in acetone can be applied topically according to a modification of the method by Back et al. to the shaved bellies of mice to elicit an immune response. (See Back, O. and T. Egelrud, Topical glucocorticoids and suppression of contact sensitivity. A mouse bioassay of anti-inflammatory effects. Br J Dermatol, 1985. 112(5): 539-45 and Bailey, S. C., et al., A novel contact hypersensitivity model for rank-ordering formulated corticosteroids. Inflamm Res, 1995. 44 Suppl 2: S162-3.) Mice then are challenged on day 5 with 40 μl of 0.5-1% DNFB to each ear. […] The ears are assayed for edema or neutrophil infiltration 5 hours later. Dexamethasone is used as a positive control. Five days later, the ears are challenged topically with a dose of DNFB insufficient to produce contact irritation. Simultaneously, cell infiltration studies are initiated. […]

TPA-induced edema = test: TPA-induced edema, murine ear acute contact irritation model; format: in vivo, mouse; details: 2 μg TPA in 20 μl acetone; AFC in acetone 15 min later; 5.5 hours
Description: (See Carlson, R. P., et al., Modulation of mouse ear edema by cyclooxygenase and lipoxygenase inhibitors and other pharmacologic agents. Agents Actions, 1985. 17(2): 197-204; Kuehl, F. A., Jr., et al., Role of prostaglandin endoperoxide PGG2 in inflammatory processes. Nature, 1977. 265(5590): 170-3; Trancik R J, L. N., Evaluation of topical nonsteroidal anti-inflammatory agents, in Models in Dermatology, L. Maibach, Editor. 1985, Karger. pp, 35-42; and Tramposch, K. M., Skin Inflammation, in In Vivo Models of Inflammation, M. L. Morgan D W, Editor. 1999, Birkhauser Verlag. pp. 179-204.)
The standard agents for initiating inflammation were the phorbol ester, tetradecanoylphorbol acetate, (TPA) and arachidonic acid (AA). TPA produces a greater and more prolonged neutrophil infiltration response than AA (See Rao, T. S., et al., Comparative evaluation of arachidonic acid (AA)-and tetradecanoylphorbol acetate (TPA)-induced dermal inflammation. Inflammation, 1993.17(6): 72341.) TPA-induced inflammation is the preferred agent and was used for this example.
In order to assess the effects of the inventive composition on TPA-induced edema, 2 μg of TPA in 20 μl acetone was applied with the aid of a micropipetter onto both ears of each of 6 mice. The mice were returned to their cages. […]

mouse ear [6] = test: AFC in acetone alone, mouse ear edema (irritancy test); format: in vivo; details: topical, dose up to about 32 mg/20 μl, 5.5 hours
Experimental: Each contralateral ear was treated with only acetone in the same manner. The mice then were returned to their cages. After 5.5 hours, mice were sacrificed and 6 mm punches were taken from each ear and weighed. Edema response was expressed as the percent increase in the treated ear's weight over the untreated (acetone, vehicle only) ear.

TPA-induced MPO activity [7] = details: mouse, in vivo
Experimental: These included dexamethasone, a steroid, and indomethasone, a non-steroid anti-inflammatory drug, which targets cycloxygenases. The action of AFC in this model was, therefore, compared to that of dexamethasone and indomethasone. Each of these agents were tested using the same protocols used to test AFC.

mouse ear [8] = test: Induction of mouse ear edema by TPA (dose response for irritant); format: in vivo; details: of the acetone-treated ear; TPA 0.25 to 1.75 μg/20 μl in acetone, topical, 5.5 hours
Experimental: A dose response range for TPA, a compound known to induce edema, was determined. TPA produces an increase in edema (ear swelling) that reaches a maximum at 6 hours.
Increasing concentrations of TPA dissolved in acetone were applied with the aid of a micropipetter onto the right ear of each of the five 6-8 week old, male Swiss Webster mice used in this analysis. Ten microliters (10 μl) were spread evenly onto the inner and outer surfaces using the pipette tip. The mice then were returned to their cages. The contralateral ear was treated only with acetone. After 5.5 hours, the mice were sacrificed and 6 mm punches were taken from each ear and weighed. Edema response was expressed as a percent increase in the treated ear's weight over the untreated ear. The dose response curve, as well as an ED50 value, was determined using the Lichtfield method (Lichtfield J T W. F., A simplified method of evaluating dose-effect experiments, Journal of Pharmacology and Experimental Therapeutics, 1948, 96: 99-113).

[9] = 2 μg TPA in 20 μl acetone, AFC 15 min later, 24 hours

Chain of membrane-associated polyisoprenoid methyl transferase (O60725 whole entry): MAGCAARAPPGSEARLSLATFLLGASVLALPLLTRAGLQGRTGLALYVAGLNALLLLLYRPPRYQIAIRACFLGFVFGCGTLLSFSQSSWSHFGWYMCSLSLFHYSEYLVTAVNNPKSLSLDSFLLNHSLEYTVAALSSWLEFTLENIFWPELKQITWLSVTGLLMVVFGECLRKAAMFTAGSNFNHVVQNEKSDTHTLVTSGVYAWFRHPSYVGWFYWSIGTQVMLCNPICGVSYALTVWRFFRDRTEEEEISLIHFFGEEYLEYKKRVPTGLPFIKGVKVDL

Molecule: CC(=O)N[C@@H](CSCC=C(C)CCC=C(C)CCC=C(C)C)C(=O)O (stereo in doubt) [AFC, N-acetyl-5-trans, trans-farnesyl-L-cysteine]
- chronic edema and neutrophil number (chronic irritation): reduces chronic edema and neutrophil number
- neutrophil, macrophage and platelet responses [1]: block some neutrophil, macrophage, and platelet responses in vitro
- reduction in dermal neutrophils (counts) ([2]; 1.0 mg/20 μl AFC, TPA acute contact irritation, statistically significant, paired t-test): 80%
- neutrophils in histology of AFC treated ear ([2]; TPA pretreated ears, 24 hours, FIG. 5): substantial reduction of neutrophils
- inhibition of polyisoprenoid methyl transferase [3]: inhibit membrane-associated polyisoprenoid methyl transferase
- TPA-induced erythema (TPA-induced erythema): An effect of the AFC inventive composition on TPA-induced erythema was observed
- skin irritation at patch site 1b (human skin; 20% SDS patch removed after 2 hours and 30 minutes): mild response
- skin irritation at patch site 1a (human skin; 20% SDS patch removed after 2 hours): normal skin
- effect on TPA-induced MPO activity at different application times (TPA-induced MPO activity [4]; 1 μg/20 μl TPA, 1 mg/20 μl AFC at various times before and after TPA): efficacy of AFC treatment prior to, simultaneous with, or after exposure of skin to TPA
- ED50 for inhibition of TPA-induced MPO activity (TPA-induced MPO activity [4]; [9]): 0.065 mg/20 μl
- inhibition of TPA-induced increases in MPO activity (TPA-induced MPO activity [4]; [9]): > 80%
- edema and neutrophil infiltration in DNFB challenge [5]: effective in reducing both edema and neutrophil infiltration
- ED50 for TPA-induced edema inhibition (TPA-induced edema): approximately 0.44 mg/20 μl
- maximum reduction in TPA-induced edema (TPA-induced edema): 80%
- edema response (ear punch biopsy weight) to AFC alone (mouse ear [6]): no effect

- MPO activity in the contralateral vehicle-treated ear (systemic effect) (TPA-induced MPO activity [7]): increasing inhibition of MPO activity
Molecule: C[C@@H]1C[C@H]2[C@@H]3CCC4=CC(=O)C=C[C@]4(C)[C@@]3(F)[C@@H](O)C[C@]2(C)[C@@]1(O)C(=O)CO [dexamethasone]

- MPO activity in the contralateral vehicle-treated ear (systemic effect) (TPA-induced MPO activity [7]): increasing inhibition of MPO activity
Molecule: COc1ccc2c(c1)c(CC(=O)O)c(C)n2C(=O)c1ccc(Cl)cc1 [indomethasone]

Molecule: tetradecanoylphorbol acetate [TPA]
- maximum increase in ear weight (edema) (mouse ear [8]): approximately 150%
